Experiments:
[1] = Hoechst 33342 nuclear staining; format: cell-based; details: for Hoechst 33342 nuclear staining score, HeLa: HeLa cells; for Hoechst 33342 nuclear staining score, Jurkat: Jurkat cells; for Hoechst 33342 nuclear staining score, H460: H460 cells; for Hoechst 33342 nuclear staining score, Jily: Jily cells; for Hoechst 33342 nuclear staining score, MRC5: MRC5 cells; for Hoechst 33342 nuclear staining score, PBLs: key: 0: no activity; 1: weak activity comprising less than 50% of the cells; 2: strong activity comprising more than 50% of the cells;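 for all read-outs here: apoptotic nuclei scored 0 none 1 weak under 50% of cells 2 strong over 50% of cells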
Procedure, shortened: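 Cells were plated in 96 well tissue culture plates in 80 μl complete medium, with 3-5*10^3 cells per well for adherent lines and 8-10*10^3 for suspension lines. Adherent cells spread for 24 h before treatment, while suspension cells were treated right after seeding. Compounds were added in 20 μl complete medium containing max 5% DMSO.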

[2] = tested on: HeLa; assay: MTS proliferation assay; format: cell-based, human; details: 72 h
Procedure, shortened: (§1)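 Absorbance at 492 nm after a 3 h MTS incubation reports viable cell number. Before that, compounds at 10 μM, 3 μM, 1 μM and 0.3 μM final stay on the cells for 72 h at culture conditions.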

[3] = tested on: Jurkat; assay: MTS proliferation assay; format: cell-based, human; details: 72 h
Procedure, shortened: as §1

[4] = tested on: MRC5; assay: MTS proliferation assay; format: cell-based; details: MRC5, 72 h
Procedure, shortened: as §1

[5] = conc 0.1 (final concentrations in μM), 24 h or 48 h incubation
[6] = conc 0.3 (final concentrations in μM), 24 h or 48 h incubation
[7] = conc 1 (final concentrations in μM), 24 h or 48 h incubation
[8] = conc 3 (final concentrations in μM), 24 h or 48 h incubation
[9] = conc 10 (final concentrations in μM), 24 h or 48 h incubation

SMILES: Cc1ccc(S(=O)(=O)n2cc(CNCCCN3CCN(C)CC3)cc2-c2ccc3c(c2)OCO3)cc1 [Example 12]
- Hoechst 33342 nuclear staining score, HeLa [1, 5]: 0
- Hoechst 33342 nuclear staining score, HeLa [1, 6]: 0
- Hoechst 33342 nuclear staining score, HeLa [1, 7]: 0
- Hoechst 33342 nuclear staining score, HeLa [1, 8]: 0
- Hoechst 33342 nuclear staining score, Jurkat [1, 5]: 0
- Hoechst 33342 nuclear staining score, Jurkat [1, 6]: 0
- Hoechst 33342 nuclear staining score, Jurkat [1, 7]: 0
- Hoechst 33342 nuclear staining score, Jurkat [1, 8]: 0
- IC50 [2]: > 1000 nM
- IC50 [3]: > 1000 nM
- IC50 [4]: > 1000 nM

SMILES: Cc1ccc(S(=O)(=O)n2cc(CNCCCN3CCN(Cc4ccccc4)CC3)cc2-c2ccc3c(c2)OCO3)cc1 [Example 23]
- Hoechst 33342 nuclear staining score, HeLa [1, 5]: 0
- Hoechst 33342 nuclear staining score, HeLa [1, 6]: 0
- Hoechst 33342 nuclear staining score, HeLa [1, 7]: 0
- Hoechst 33342 nuclear staining score, HeLa [1, 8]: 0
- Hoechst 33342 nuclear staining score, Jurkat [1, 5]: 0
- Hoechst 33342 nuclear staining score, Jurkat [1, 6]: 0
- Hoechst 33342 nuclear staining score, Jurkat [1, 7]: 0
- Hoechst 33342 nuclear staining score, Jurkat [1, 8]: 0
- IC50 [2]: > 1000 nM
- IC50 [3]: > 1000 nM
- IC50 [4]: > 1000 nM

SMILES: CCCCOc1ccc(S(=O)(=O)n2cc(-c3cccnc3)cc2-c2cc(OC)c(OC)c(OC)c2)cc1 [Example 78]
- Hoechst 33342 nuclear staining score, H460 ([1]; conc 0.1): 0
- Hoechst 33342 nuclear staining score, H460 ([1]; conc 0.3): 0
- Hoechst 33342 nuclear staining score, H460 ([1]; conc 1): 0
- Hoechst 33342 nuclear staining score, H460 ([1]; conc 3): 0
- Hoechst 33342 nuclear staining score, HeLa ([1]; conc 0.1): 0
- Hoechst 33342 nuclear staining score, HeLa ([1]; conc 0.3): 0
- Hoechst 33342 nuclear staining score, HeLa ([1]; conc 1): 0
- Hoechst 33342 nuclear staining score, HeLa ([1]; conc 3): 0
- Hoechst 33342 nuclear staining score, Jily ([1]; conc 0.1): 0
- Hoechst 33342 nuclear staining score, Jily ([1]; conc 0.3): 0
- Hoechst 33342 nuclear staining score, Jily ([1]; conc 1): 0
- Hoechst 33342 nuclear staining score, Jily ([1]; conc 3): 0
- Hoechst 33342 nuclear staining score, Jurkat ([1]; conc 0.1): 0
- Hoechst 33342 nuclear staining score, Jurkat ([1]; conc 0.3): 0
- Hoechst 33342 nuclear staining score, Jurkat ([1]; conc 1): 0
- Hoechst 33342 nuclear staining score, Jurkat ([1]; conc 3): 0
- Hoechst 33342 nuclear staining score, MRC5 ([1]; conc 0.1): 0
- Hoechst 33342 nuclear staining score, MRC5 ([1]; conc 0.3): 0
- Hoechst 33342 nuclear staining score, MRC5 ([1]; conc 1): 0
- Hoechst 33342 nuclear staining score, MRC5 ([1]; conc 3): 0
- Hoechst 33342 nuclear staining score, PBLs ([1]; conc 0.1): 0
- Hoechst 33342 nuclear staining score, PBLs ([1]; conc 0.3): 0
- Hoechst 33342 nuclear staining score, PBLs ([1]; conc 1): 0
- Hoechst 33342 nuclear staining score, PBLs ([1]; conc 3): 0
- IC50 [2]: > 1000 nM
- IC50 [3]: > 1000 nM
- IC50 [4]: > 1000 nM

SMILES: Cc1ccc(S(=O)(=O)n2cc(CNc3ccc(N4CCOCC4)c(Cl)c3)cc2-c2ccc3c(c2)OCO3)cc1 [Example 38]
- Hoechst 33342 nuclear staining score, HeLa [1, 6]: 0
- Hoechst 33342 nuclear staining score, HeLa [1, 7]: 0
- Hoechst 33342 nuclear staining score, HeLa [1, 8]: 0
- Hoechst 33342 nuclear staining score, HeLa [1, 9]: 0
- Hoechst 33342 nuclear staining score, Jurkat [1, 6]: 0
- Hoechst 33342 nuclear staining score, Jurkat [1, 7]: 0
- Hoechst 33342 nuclear staining score, Jurkat [1, 8]: 0
- Hoechst 33342 nuclear staining score, Jurkat [1, 9]: 0
- IC50 [2]: > 1000 nM
- IC50 [3]: > 1000 nM
- IC50 [4]: > 1000 nM

— patent US7612064B2, “Sulfopyrroles” (Takeda Pharmaceutical Company Limited, priority 2003, dated 2009)
